The NIST ThermoML archive (doi:10.1021/acs.jced.6b00354)

Test: mn = molality of the nth substance listed, in mol/kg
Settings: 100 kPa, Liquid, Alternating current cell with electrodes

CC(=O)N(C)C [N,N-dimethylethanamide] + CCCCn1cc[n+](C)c1.F[B-](F)(F)F
electrical conductivity [S/m]
Settings	283.15 K	288.15 K	293.15 K	298.15 K	303.15 K	308.15 K	313.15 K	318.15 K
m2 = 0.0003956	0.0021612	0.0023283	0.0025019	0.0026803	0.0028647	0.0030385	0.00322	0.0034051
m2 = 0.000671	0.0036275	0.0039047	0.004196	0.0044945	0.0047984	0.0050953	0.0053975	0.0057039
m2 = 0.0009718	0.0051999	0.0056027	0.0060224	0.0064451	0.0068768	0.0073024	0.0077338	0.0081707
m2 = 0.001959	0.010227	0.011022	0.011831	0.012666	0.013508	0.014339	0.015175	0.01603
m2 = 0.002976	0.01525	0.016416	0.017623	0.018852	0.020112	0.021302	0.022571	0.023828
m2 = 0.003778	0.019105	0.020563	0.022088	0.023628	0.025189	0.026664	0.028258	0.029817
m2 = 0.005993	0.02947	0.03171	0.034016	0.036401	0.038756	0.041015	0.043439	0.045784
m2 = 0.007976	0.03841	0.041353	0.044368	0.047396	0.050472	0.053564	0.056503	0.059519
m2 = 0.009999	0.047279	0.050928	0.054557	0.058325	0.062033	0.065747	0.069408	0.073087
m2 = 0.01203	0.055972	0.060177	0.064588	0.069017	0.073419	0.077654	0.082086	0.086346
m2 = 0.01408	0.064541	0.069536	0.074489	0.079576	0.084557	0.089517	0.094529	0.099432
m2 = 0.01598	0.072339	0.07784	0.083519	0.089184	0.094781	0.10031	0.10588	0.1113

CCn1cc[n+](C)c1.F[B-](F)(F)F [1-ethyl-3-methylimidazolium tetrafluoroborate] + CC(=O)N(C)C
electrical conductivity [S/m]
Settings	283.15 K	288.15 K	293.15 K	298.15 K	303.15 K	308.15 K	313.15 K	318.15 K
m1 = 0.0005629	0.0031908	0.0034405	0.0036939	0.0039526	0.0042191	0.004484	0.0047434	0.0050185
m1 = 0.0006895	0.0038906	0.004193	0.0045017	0.0048205	0.0051443	0.0054656	0.0057804	0.0061132
m1 = 0.000982	0.0054941	0.0059172	0.0063518	0.0067988	0.0072509	0.0077078	0.0081485	0.0086157
m1 = 0.001939	0.010589	0.011412	0.012243	0.013099	0.013967	0.014834	0.015676	0.016565
m1 = 0.002956	0.015824	0.017057	0.018294	0.019571	0.020868	0.022135	0.023398	0.024707
m1 = 0.004046	0.021327	0.022927	0.024608	0.026319	0.028044	0.029762	0.031425	0.033169
m1 = 0.005688	0.029289	0.031559	0.033817	0.036147	0.038528	0.040878	0.043126	0.045508
m1 = 0.007809	0.039246	0.042233	0.045277	0.048414	0.051576	0.054665	0.057654	0.060821
m1 = 0.009857	0.048544	0.052266	0.056056	0.059913	0.063775	0.067588	0.071261	0.075126
m1 = 0.01192	0.057623	0.062014	0.06648	0.071	0.075636	0.08016	0.08449	0.089017
m1 = 0.01392	0.066221	0.071259	0.076376	0.081634	0.08688	0.09207	0.097012	0.10224
m1 = 0.01584	0.074143	0.079848	0.085601	0.091493	0.097323	0.10312	0.10873	0.11459
